Experimental data reported in the NIST ThermoML archive (doi:10.1016/j.jct.2013.09.017).

Test: xn = mol fraction of the nth substance listed
Details: 101 kPa, Liquid; for viscosity: Capillary tube (Ostwald / Ubbelohde) method; for mass density: Vibrating tube method

CCCCCCCCN(CCCCCCCC)CCCCCCCC [trioctylamine] + CCCCCCC
Details	mass density, 283.15 K [kg/m3]	mass density, 293.15 K [kg/m3]	mass density, 303.15 K [kg/m3]	viscosity, 283.15 K [mPa·s]	viscosity, 293.15 K [mPa·s]	viscosity, 303.15 K [mPa·s]
x1 = 0.0102	696.37	688.04	679.6	0.494	0.44	0.394
x1 = 0.103	726.07	718.22	710.29	0.856	0.738	0.642
x1 = 0.2636	759.83	752.47	745.07	1.827	1.51	1.269
x1 = 0.3223	768.63	761.41	754.13	2.321	1.899	1.569
x1 = 0.409	779.4	772.31	765.19	3.241	2.57	2.055
x1 = 0.5079	789.24	782.28	775.31	4.499	3.464	2.734
x1 = 0.5997	796.55	789.72	782.85	5.814	4.377	3.374
x1 = 0.7019	803.32	796.55	789.77	7.438	5.434	4.107
x1 = 0.8063	808.97	802.27	795.57	9.477	6.792	5
x1 = 0.906	813.43	806.79	800.15	11.64	8.231	5.972
x1 = 1	817.08	810.48	803.88	14.25	9.957	7.114
